Experimental data published in patent US6461997B1, “Triazole sulfones having herbicidal activity” (Monsanto Technology LLC, priority 1999, dated 2002).

Legend:
SOLNI (black nightshade) [1] = assay: Pre-emergence herbicidal activity, warm season; assay type: in vivo, Solanum nigrum; details: GR80 = lowest tested rate (300, 100, 30, 10 g/ha) with 80% or greater inhibition; approx. 14 days after treating; 30/21° C.
Method in brief: (§1)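 GR80 values derive from percent inhibition relative to untreated plants, read roughly 14 days after sowing and pre-emergence soil-surface treatment (compound in 50:50 acetone/water; rates typically 10, 30, 100, 300 g/ha). Warm-season weeds grew at 30/21° C day/night, cool-season ones at 18/13° C; an asterisk marks activity without reaching 80% at the highest rate.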

[2] = tested on: CIRAR (canada thistle (seedling)); assay: Pre-emergence herbicidal activity, warm season; assay type: in vivo, Cirsium arvense; details: GR80 = lowest tested rate (300, 100, 30, 10 g/ha) with 80% or greater inhibition; approx. 14 days after treating; 30/21° C.
Method in brief: as §1

[3] = tested on: SORHA (johnsongrass (seedling)); assay: Pre-emergence herbicidal activity, warm season; assay type: in vivo, Sorghum halepense; details: GR80 = lowest tested rate (300, 100, 30, 10 g/ha) with 80% or greater inhibition; approx. 14 days after treating; 30/21° C.
Method in brief: as §1

POLCO (wild buckwheat) = assay: Pre-emergence herbicidal activity, cool season; assay type: in vivo, Polygonum convolvulus; details: lowest tested rate with 80% or greater inhibition; rates 300, 100, 30, 10 g/ha; about 14 days
Method in brief: as §1

[4] = tested on: VERPE (creeping speedwell); assay: Pre-emergence herbicidal activity, cool season; assay type: in vivo, Veronica persicaria; details: lowest tested rate with 80% or greater inhibition; rates 300, 100, 30, 10 g/ha; about 14 days
Method in brief: as §1

[5] = tested on: AGSST (creeping bentgrass); assay: Pre-emergence herbicidal activity, cool season; assay type: in vivo, Agrostis stolonifera; details: GR80 = lowest tested rate (300, 100, 30, 10 g/ha) with 80% or greater inhibition; approx. 14 days after treating; 18/13° C.
Method in brief: as §1

SOLNI (black nightshade) [6] = assay: Pre-plant incorporated (PPI) herbicidal activity, warm season; assay type: in vivo, Solanum nigrum; details: for inhibition at 10 g/ha / inhibition at 30 g/ha / inhibition at 100 g/ha / inhibition at 300 g/ha / inhibition at 900 g/ha: Solanum nigrum, read-out: Percent inhibition SOLNI; for inhibition at 10 g/ha / inhibition at 30 g/ha / inhibition at 100 g/ha / inhibition at 300 g/ha / inhibition at 900 g/ha / Percent inhibition SOLNI: PPI application; for PPI activity (GR80) SOLNI: pre-plant incorporated, GR80 = lowest tested rate with 80% or greater inhibition, approx. 14 days after treating, 30/21° C.
Method in brief: (§2)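 Percent inhibition relative to untreated plants, scored about 14 days after planting. Compound was sprayed in organic solvent onto cover soil, mixed through, and layered over seeds on compacted topsoil. Warm-season species grown at 30/21° C, cool-season at 18/13° C day/night.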

[7] = tested on: BRAPP (broadleaf signalgrass); assay: as above; assay type: in vivo, Brachiaria platyphylla; details: for inhibition at 10 g/ha / inhibition at 30 g/ha / inhibition at 100 g/ha / inhibition at 300 g/ha / inhibition at 900 g/ha: Urochloa platyphylla, read-out: Percent inhibition BRAPP; for inhibition at 10 g/ha / inhibition at 30 g/ha / inhibition at 100 g/ha / inhibition at 300 g/ha / inhibition at 900 g/ha / Percent inhibition BRAPP: PPI application; for PPI activity GR80, BRAPP: pre-plant incorporated, lowest tested rate with 80% or greater inhibition, about 14 days
Method in brief: as §2

SETVI (green foxtail) = assay: Pre-plant incorporated (PPI) herbicidal activity, cool season; assay type: in vivo, Setaria viridis; details: for inhibition at 10 g/ha / inhibition at 30 g/ha / inhibition at 100 g/ha / inhibition at 300 g/ha / inhibition at 900 g/ha: Setaria viridis, read-out: Percent inhibition SETVI; for inhibition at 10 g/ha / inhibition at 30 g/ha / inhibition at 100 g/ha / inhibition at 300 g/ha / inhibition at 900 g/ha / Percent inhibition SETVI: weed, PPI application; for PPI activity GR80, SETVI: pre-plant incorporated, lowest tested rate with 80% or greater inhibition, about 14 days
Method in brief: as §2

POAAN (annual bluegrass) = assay: as above; assay type: in vivo, Poa annua; details: weed, PPI application; for inhibition at 10 g/ha / inhibition at 30 g/ha / inhibition at 100 g/ha / inhibition at 300 g/ha / inhibition at 900 g/ha: Poa annua, read-out: Percent inhibition POAAN
Method in brief: as §2

C=C(C)CC(F)(F)S(=O)(=O)c1ncn(C(=O)N(CC)CC)n1 [Example 18]
Pre-emergence activity (GR80) SOLNI (SOLNI (black nightshade) [1]): 100 g/ha | Pre-emergence activity (GR80) CIRAR [2]: 300 g/ha | Pre-emergence activity (GR80) SORHA [3]: 100 g/ha | Pre-emergence activity GR80, POLCO (POLCO (wild buckwheat)): 300 g/ha | Pre-emergence activity GR80, VERPE [4]: 300 g/ha | Pre-emergence activity (GR80) AGSST [5]: 30 g/ha | inhibition at 10 g/ha (SOLNI (black nightshade) [6]; 10 g/ha): 0% | inhibition at 30 g/ha (SOLNI (black nightshade) [6]; 30 g/ha): 0% | inhibition at 100 g/ha (SOLNI (black nightshade) [6]; 100 g/ha): 20% | inhibition at 300 g/ha (SOLNI (black nightshade) [6]; 300 g/ha): 99% | inhibition at 900 g/ha (SOLNI (black nightshade) [6]; 900 g/ha): 90% | PPI activity (GR80) SOLNI (SOLNI (black nightshade) [6]): 300 g/ha | inhibition at 10 g/ha ([7]; 10 g/ha): 0% | inhibition at 30 g/ha ([7]; 30 g/ha): 0% | inhibition at 100 g/ha ([7]; 100 g/ha): 0% | inhibition at 300 g/ha ([7]; 300 g/ha): 100% | inhibition at 900 g/ha ([7]; 900 g/ha): 100% | PPI activity GR80, BRAPP [7]: 100 g/ha | inhibition at 10 g/ha (SETVI (green foxtail); 10 g/ha): 100% | inhibition at 30 g/ha (SETVI (green foxtail); 30 g/ha): 100% | inhibition at 100 g/ha (SETVI (green foxtail); 100 g/ha): 100% | inhibition at 300 g/ha (SETVI (green foxtail); 300 g/ha): 60% | inhibition at 900 g/ha (SETVI (green foxtail); 900 g/ha): 100% | PPI activity GR80, SETVI (SETVI (green foxtail)): 30 g/ha | inhibition at 10 g/ha (POAAN (annual bluegrass); 10 g/ha): 20% | inhibition at 30 g/ha (POAAN (annual bluegrass); 30 g/ha): 50% | inhibition at 100 g/ha (POAAN (annual bluegrass); 100 g/ha): 65% | inhibition at 300 g/ha (POAAN (annual bluegrass); 300 g/ha): 80% | inhibition at 900 g/ha (POAAN (annual bluegrass); 900 g/ha): 100%

C=C(Br)CC(F)(F)S(=O)(=O)c1ncn(C(=O)N(CC)CC)n1 [Example 19]
Pre-emergence activity (GR80) SOLNI (SOLNI (black nightshade) [1]): 300 g/ha | Pre-emergence activity (GR80) CIRAR [2]: 300 g/ha | Pre-emergence activity (GR80) SORHA [3]: 100 g/ha | Pre-emergence activity GR80, POLCO (POLCO (wild buckwheat)): [empty] | Pre-emergence activity GR80, VERPE [4]: 300 g/ha | Pre-emergence activity (GR80) AGSST [5]: 30 g/ha | inhibition at 10 g/ha (SOLNI (black nightshade) [6]; 10 g/ha): 0% | inhibition at 30 g/ha (SOLNI (black nightshade) [6]; 30 g/ha): 0% | inhibition at 100 g/ha (SOLNI (black nightshade) [6]; 100 g/ha): 0% | inhibition at 300 g/ha (SOLNI (black nightshade) [6]; 300 g/ha): 40% | inhibition at 900 g/ha (SOLNI (black nightshade) [6]; 900 g/ha): 90% | PPI activity (GR80) SOLNI (SOLNI (black nightshade) [6]): 100 g/ha | inhibition at 10 g/ha ([7]; 10 g/ha): 0% | inhibition at 30 g/ha ([7]; 30 g/ha): 0% | inhibition at 100 g/ha ([7]; 100 g/ha): 30% | inhibition at 300 g/ha ([7]; 300 g/ha): 100% | inhibition at 900 g/ha ([7]; 900 g/ha): 100% | PPI activity GR80, BRAPP [7]: 300 g/ha | inhibition at 10 g/ha (SETVI (green foxtail); 10 g/ha): 50% | inhibition at 30 g/ha (SETVI (green foxtail); 30 g/ha): 60% | inhibition at 100 g/ha (SETVI (green foxtail); 100 g/ha): 100% | inhibition at 300 g/ha (SETVI (green foxtail); 300 g/ha): 100% | inhibition at 900 g/ha (SETVI (green foxtail); 900 g/ha): 100% | PPI activity GR80, SETVI (SETVI (green foxtail)): 30 g/ha | inhibition at 10 g/ha (POAAN (annual bluegrass); 10 g/ha): 0% | inhibition at 30 g/ha (POAAN (annual bluegrass); 30 g/ha): 0% | inhibition at 100 g/ha (POAAN (annual bluegrass); 100 g/ha): 10% | inhibition at 300 g/ha (POAAN (annual bluegrass); 300 g/ha): 100% | inhibition at 900 g/ha (POAAN (annual bluegrass); 900 g/ha): 100%

C=C(CC(F)(F)S(=O)(=O)c1ncn(C(=O)N(CC)CC)n1)C[Si](C)(C)C [Example 20]
Pre-emergence activity (GR80) SOLNI (SOLNI (black nightshade) [1]): 100 g/ha | Pre-emergence activity (GR80) CIRAR [2]: 100 g/ha | Pre-emergence activity (GR80) SORHA [3]: 300 g/ha | Pre-emergence activity GR80, POLCO (POLCO (wild buckwheat)): * (activity observed, at least at highest rate, but <80% inhibition) | Pre-emergence activity GR80, VERPE [4]: [empty] | Pre-emergence activity (GR80) AGSST [5]: 300 g/ha | Percent inhibition SOLNI (SOLNI (black nightshade) [6]; 10 g/ha): 0% | Percent inhibition SOLNI (SOLNI (black nightshade) [6]; 30 g/ha): 0% | Percent inhibition SOLNI (SOLNI (black nightshade) [6]; 100 g/ha): 0% | Percent inhibition SOLNI (SOLNI (black nightshade) [6]; 300 g/ha): 30% | Percent inhibition SOLNI (SOLNI (black nightshade) [6]; 900 g/ha): 100% | PPI activity (GR80) SOLNI (SOLNI (black nightshade) [6]): 100 g/ha | Percent inhibition BRAPP ([7]; 10 g/ha): 0% | Percent inhibition BRAPP ([7]; 30 g/ha): 0% | Percent inhibition BRAPP ([7]; 100 g/ha): 0% | Percent inhibition BRAPP ([7]; 300 g/ha): 30% | Percent inhibition BRAPP ([7]; 900 g/ha): 60% | PPI activity GR80, BRAPP [7]: 100 g/ha | PPI activity GR80, SETVI (SETVI (green foxtail)): 30 g/ha | Percent inhibition SETVI (SETVI (green foxtail); 10 g/ha): 0% | Percent inhibition SETVI (SETVI (green foxtail); 30 g/ha): 70% | Percent inhibition SETVI (SETVI (green foxtail); 100 g/ha): 40% | Percent inhibition SETVI (SETVI (green foxtail); 300 g/ha): 100% | Percent inhibition SETVI (SETVI (green foxtail); 900 g/ha): 100% | Percent inhibition POAAN (POAAN (annual bluegrass); 10 g/ha): 0% | Percent inhibition POAAN (POAAN (annual bluegrass); 30 g/ha): 30% | Percent inhibition POAAN (POAAN (annual bluegrass); 100 g/ha): 60% | Percent inhibition POAAN (POAAN (annual bluegrass); 300 g/ha): 90% | Percent inhibition POAAN (POAAN (annual bluegrass); 900 g/ha): 99%
